Reference: patent US20030134859A1 (SANKYO COMPANY, LIMITED, priority 2000, published 2003)
Structures can show the parent of a compound that is named as a salt.

Experiments:
Rat white adipocytes = assay: Stimulation of differentiation of the adipocytes (Oil Red O); assay type: cell-based; details: Rattus norvegicus, Adipocyte, 120 h, 100 nM test compound; 5 days; Oil Red O ABS550; control = 100%, blank = 0%; Table 7; read-out: Rate of Differentiation (%)
In short: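 Rat white adipocytes, 5,000 cells/well, cultured 5 days in differentiation-inducing medium with test compound at final 100 nM (0.1% DMSO). Cells fixed, stained with Oil Red O, dye extracted in DMSO and read at 550 nm; differentiation rate expressed relative to vehicle control (100%) and cell-free blank (0%).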

[1] = tested on: human colon cancer cells COL-2-JCK; assay: Inhibition of colony forming activity in human colon cancer cells; assay type: cell-based; details: Homo sapiens, 240 h; 1 μM test compound; 10 days; sum of colony areas vs control; read-out: Inhibition Rate (%) against the colony forming activity
Procedure: For the medium to culture the human colon cancer cells, D-MEM/F-12 medium containing inactivated bovine fetal serum at a concentration of 10% (GIBCO) was used. The human colon cancer cells COL-2-JCK (purchased from Institute for Experimental Animals) grown in mass formation in a plastic dish for the cell culture with an inner diameter of 100 mm were stripped off from the dish by using EDTA (ethylenediaminetetraacetic acid) and 0.05% trypsin solution. Then, a cell dilution solution was prepared at a concentration of 100 cells/mL solution which was diluted with the medium (D-MEM/F-12).
Three (3) mL of the cell solution were inoculated in each well of a 6-well plastic plate (300 cells/well). The test compound that was dissolved in DMSO solution so as to be a final concentration of 1 μM of the test compound and that of DMSO solution of 0.1% was added to each well. DMSO solution alone was added into the well for the control so as to be a final concentration of 0.1%.
The cells in each well were cultured for 10 days at 37° C. in the presence of 5% CO2. After the culturing was finalised, each well was washed once with Dulbecco-phosphate-buffer-saline solution (bivalent anion). Then, 1.5 ml of neutral buffered formalin solution containing 0.02% crystal violet was added to each well and the plate was kept stationary for 5 min for fixation and staining the cells. After fixation and staining, the cells were washed with water and were air-dried. Then the sum of the colony area (mm^2) of the stained cancer cells was calculated by using an image analyzer PCA-11 (SystemScience). From the calculated values, the inhibition rate (%) of the compound against the colony forming activity was obtained based on the following equation.
Inhibition Rate (%) against the colony forming activity=(1−A/B)×100
A: Sum of Colony Areas in the Group Treated with 1 μM of the Test Compound
B: Sum of Colony Areas in the Control Group

TNF-α production = assay: Inhibitory activity against cytokine (TNF-α) production in LPS-stimulated RAW264.7 cells; assay type: cell-based, mouse; details: Mus musculus, RAW264.7, 15 h, 1 μM test compound, LPS 10 ng/mL
In short: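 Mouse RAW264.7 macrophages (5,000 cells/well) stimulated with 10 ng/mL LPS (final) and treated with test compound at 1 μM final for 15 h at 37 °C. Supernatant mouse TNF-α measured by ELISA; % inhibition = 100−(A−B)/(C−B)×100, using unstimulated and LPS-only controls.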

Compound | activity at 0.1 µM (Rat white adipocytes) [%] | inhibition at 1 µM [1] [%] | inhibition at 1 µM (TNF-α production) [%]
Cc1ccc(NC(=O)c2cc([N+](=O)[O-])ccc2Cl)cc1 [Example 1, N-(4-Methylphenyl)-(2-chloro-5-nitrophenyl)carboxamide] | 121 | – | –
O=C(Nc1cccc(-c2ccccc2)c1)c1cc([N+](=O)[O-])ccc1Cl [Example 5, N-(3-Phenylphenyl)-(2-chloro-5-nitrophenyl)carboxamide] | – | 26 | –
O=C(Nc1ccc(-c2ccccn2)cc1)c1cc([N+](=O)[O-])ccc1Cl [Example 8, N-[4-(2-Pyridyl)phenyl]-(2-chloro-5-nitrophenyl)carboxamide] | 114 | – | 18.9
Cc1ccc(-c2nc(NC(=O)c3cc([N+](=O)[O-])ccc3Cl)sc2C)cc1Cl [Example 46, N-[4-(3-Chloro-4-methylphenyl)-5-methylthiazol-2-yl]-(2-chloro-5-nitrophenyl)carboxamide] | 124 | – | 30.7
O=C(Nc1ccc2c3c(cccc13)CC2)c1cc([N+](=O)[O-])ccc1Cl [Example 54, N-(Acenaphthen-5-yl)-(2-chloro-5-nitrophenyl)carboxamide] | 118 | – | 16.8
Cc1ccnc(NC(=O)c2cc([N+](=O)[O-])ccc2Cl)n1 [Example 65, N-(4-Methylpyrimidin-2-yl)-(2-chloro-5-nitrophenyl)carboxamide] | 112 | – | –
COC(=O)c1sccc1NC(=O)c1cc([N+](=O)[O-])ccc1Cl [Example 66, N-(2-Methoxycarbonylthiophen-3-yl)-(2-chloro-5-nitrophenyl)carboxamide] | 113 | – | –
O=C(Nc1c(Cl)ncnc1Cl)c1cc([N+](=O)[O-])ccc1Cl [Example 81, N-(4,6-Dichloropyrimidin-5-yl)-(2-chloro-5-nitrophenyl)carboxamide] | – | – | 32
Cn1c(NC(=O)c2cc([N+](=O)[O-])ccc2Cl)nc2ccccc21 [Example 82, N-(1-Methylbenzimidazol-2-yl)-(2-chloro-5-nitrophenyl)carboxamide] | 114 | – | –
O=C(Nc1nncs1)c1cc([N+](=O)[O-])ccc1Cl [Example 85, N-(1,3,4-Thiadiazol-2-yl)-(2-chloro-5-nitrophenyl)carboxamide] | 125 | – | –
N=C(N)NS(=O)(=O)c1ccc(NC(=O)c2cc([N+](=O)[O-])ccc2Cl)cc1 [Example 106, N-[4-(Amidinoaminosulfonyl)phenyl]-(2-chloro-5-nitrophenyl)carboxamide] | 113 | – | –
O=C(Nc1nc(-c2ccc(F)c(F)c2)cs1)c1cc([N+](=O)[O-])ccc1Cl [Example 111, N-[4-(3,4-Difluorophenyl)thiazol-2-yl]-(2-chloro-5-nitrophenyl)carboxamide] | – | – | 28.7
Cc1ccc(S(=O)(=O)Nc2ccc(NC(=O)c3cc([N+](=O)[O-])ccc3Cl)cc2)cc1 [Example 116, N-[4-(4-Toluenesulfonylamino)phenyl]-(2-chloro-5-nitrophenyl)carboxamide] | 124 | – | –
CC(=O)Nc1ccc(NC(=O)c2cc([N+](=O)[O-])ccc2Cl)cc1 [Example 117, N-(4-Acetylaminophenyl)-(2-chloro-5-nitrophenyl)carboxamide] | 122 | – | –
O=C(Nc1ccc(NC(=O)c2cc([N+](=O)[O-])ccc2Cl)cc1)c1ccccc1 [Example 119, N-(4-Benzoylaminophenyl)-(2-chloro-5-nitrophenyl)carboxamide] | 135 | – | –
O=C(Nc1ccc(NC(=O)c2cc([N+](=O)[O-])ccc2Cl)cc1)c1ccncc1 [Example 125, N-[4-(Pyridin-4-ylcarbonylamino)phenyl]-(2-chloro-5-nitrophenyl)carboxamide] | 132 | – | –

Compound | activity at 0.1 µM (Rat white adipocytes) [%] | inhibition at 1 µM [1] [%] | inhibition at 1 µM (TNF-α production) [%]
CCCCCCN(CCCCCC)c1ccc(NC(=O)c2cc([N+](=O)[O-])ccc2Cl)cc1 [Example 138, N-[4-(N,N-di-n-Hexylamino)phenyl]-(2-chloro-5-nitrophenyl)carboxamide] | 126 | – | 17.8
CC(C)(C)c1cc(C(=O)Nc2ccc(NC(=O)c3cc([N+](=O)[O-])ccc3Cl)cc2)cc(C(C)(C)C)c1O [Example 157, N-[4-[(3,5-di-tert-Butyl-4-hydroxybenzoyl)amino]phenyl]-(2-chloro-5-nitrophenyl)carboxamide] | 116 | – | 38.6
CN(C)c1cccc(NC(=O)c2cc([N+](=O)[O-])ccc2Cl)c1 [Example 176, N-(3-Dimethylamino)phenyl-(2-chloro-5-nitrophenyl)carboxamide] | 118 | – | –
O=C(Nc1ccc(S(=O)(=O)Nc2ccc(N3CCOCC3)cc2)cc1)c1cc([N+](=O)[O-])ccc1Cl [Example 179, N-[4-[4-(Morpholin-4-yl)phenyl]aminosulfonyl]phenyl-(2-chloro-5-nitrophenyl)carboxamide] | 128 | – | –
CCCNc1ccc(NC(=O)c2cc([N+](=O)[O-])ccc2Cl)cc1 [Example 181, N-[4-(N-Propylamino)phenyl]-(2-chloro-5-nitrophenyl)carboxamide] | 128 | – | –
CCCN(CC)c1ccc(NC(=O)c2cc([N+](=O)[O-])ccc2Cl)cc1 [Example 189, N-[4-(N-Ethyl-N-propylamino)phenyl]-(2-chloro-5-nitrophenyl)carboxamide] | 133 | – | 16.3
CCCCCCNc1ccc(-c2ccc(NC(=O)c3cc([N+](=O)[O-])ccc3Cl)cc2)cc1 [Example 195, N-[4-[4-(N-Hexylamino)phenyl]phenyl]-(2-chloro-5-nitrophenyl)carboxamide] | – | – | 16.1
CCCCCCN(C)c1ccc(-c2ccc(NC(=O)c3cc([N+](=O)[O-])ccc3Cl)cc2)cc1 [Example 196, N-[4-[4-(N-Hexyl-N-methylamino)phenyl]phenyl]-(2-chloro-5-nitrophenyl)carboxamide] | – | – | 15.3
CCCCCCN(CC)c1ccc(-c2ccc(NC(=O)c3cc([N+](=O)[O-])ccc3Cl)cc2)cc1 [Example 197, N-[4-[4-(N-Ethyl-N-hexylamino)phenyl]phenyl]-(2-chloro-5-nitrophenyl)carboxamide] | – | – | 21.6
CCCCCCCCNc1ccc(-c2ccc(NC(=O)c3cc([N+](=O)[O-])ccc3Cl)cc2)cc1 [Example 219, N-[4-[4-(N-Octylamino)phenyl]phenyl]-(2-chloro-5-nitrophenyl)carboxamide] | – | – | 21.7
CCCCCCCCN(CCCCCC)c1ccc(-c2ccc(NC(=O)c3cc([N+](=O)[O-])ccc3Cl)cc2)cc1 [Example 220, N-[4-[4-(N-Hexyl-N-octylamino)phenyl]phenyl]-(2-chloro-5-nitrophenyl)carboxamide mono-hydrochloride] | – | – | 16.3
CCCCCCCCN(CCCC)c1ccc(-c2ccc(NC(=O)c3cc([N+](=O)[O-])ccc3Cl)cc2)cc1.Cl [Example 223, N-[4-[4-(N-Butyl-N-octylamino)phenyl]phenyl]-(2-chloro-5-nitrophenyl)carboxamide mono-hydrochloride] | – | – | 28.2
CCCCCCCCN(CCC)c1ccc(-c2ccc(NC(=O)c3cc([N+](=O)[O-])ccc3Cl)cc2)cc1 [Example 224, N-[4-[4-(N-Octyl-N-propylamino)phenyl]phenyl]-(2-chloro-5-nitrophenyl)carboxamide] | – | – | 22.4
CC(C)(C)OC(=O)Nc1cccc(-c2csc(NC(=O)c3cc([N+](=O)[O-])ccc3Cl)n2)c1 [Example 234, N-[4-(3-tert-Butoxycarbonylaminophenyl)thiazol-2-yl]-(2-chloro-5-nitrophenyl)carboxamide] | – | – | 32.5
CS(=O)(=O)N(c1ccc(-c2ccc(NC(=O)c3cc([N+](=O)[O-])ccc3Cl)cc2)cc1)S(C)(=O)=O [Example 235, N-[4-[4-(N,N-Dimethanesulfonylamino)phenyl]phenyl]-(2-chloro-5-nitrophenyl)carboxamide] | – | – | 40.2
O=C(Nc1ccc(CCNC(=S)Nc2cccnc2)cc1)c1cc([N+](=O)[O-])ccc1Cl [Example 273, N-[4-[2-(Pyridin-3-yl)aminothiocarbonylaminoethyl]phenyl]-(2-chloro-5-nitrophenyl)carboxamide] | – | – | 19.9
